The values below are quoted from earlier work in patent publication US20160250192A1, “PRODUCTION METHOD OF PHARMACEUTICAL COMPOSITION CONTAINING CANDESARTAN CILEXETIL” (Sawai Pharmaceutical Co., Ltd., priority 2013, published 2016).

Molecules are shown by their SMILES.

`CCOc1nc2cccc(C(=O)OC(C)OC(=O)OC3CCCCC3)c2n1Cc1ccc(-c2ccccc2-c2nnn[nH]2)cc1` (racemic) [Candesartan cilexetil, (RS)-1-[(cyclohexyloxy)carbonyloxy]ethyl 2-ethoxy-1-{[2′-(1H-tetrazole-5-yl)-biphenyl-4-yl]methyl}-1H-benzimidazole-7-carboxylate]: the solubility in water result was “poorly soluble”.
